Structures can show the parent of a compound that is named as a salt.
Experiments:
[1] = Total antioxidant activity assay (TEAC; metmyoglobin, 2,2′-azinobis(3-ethylbenzoline 6-sulfonate), H2O2); conditions: 7.5 min at 30° C., absorbance at 734 nm
Method: Briefly, 1 ml of reaction mixture including 2.5 μM metmyoglobin, 150 μM 2,2′-azinobis(3-ethylbenzoline 6-sulfonate), 75 μM H2O2, and 0.84% sample or Trolox (for standard) in PBS was incubated for 7.5 min at 30° C.; then the absorbance at 734 nm was measured. The data are normalized to 1 mM Trolox (TEAC activity) [Kumiko I. et al., The Activation of Dopamine D4 Receptors Inhibits Oxidative Stress-Induced Nerve Cell Death., J. Neurosci., 2001]. The EC50 values were analyzed statistically using Prizm® (GraphPad Software Inc., San Diego, Calif., USA).

[2] = test system: HT22 cells (mouse hippocampal neuron); test: Cell cytotoxicity test: protection of HT22 cells against glutamate toxicity (EC50) and cytotoxicity of the compounds (CC50), MTT; format: cell-based; conditions: Mus musculus, HT-22, five millimolar glutamate, 24 hrs, read-out: EC50 (neuroprotective effect against glutamate toxicity)
Method in brief: (§1)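 Cells plated 16 hrs, then exposed to 5 mM glutamate plus a compound concentration series for 24 hrs in DMEM with 10% FBS. Viability by MTT (4 hrs), absorbance at 450 nm; EC50 is protection against glutamate toxicity, CC50 is compound cytotoxicity.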

[3] = as above; format: cell-based, mouse; conditions: mouse, HT22 cells (mouse hippocampal neuron)
Method in brief: as §1

| Structure (SMILES) | EC50 [1] [µM] | EC50 [2] [nM] | CC50 at 24 h [3] [µM] |
| --- | --- | --- | --- |
| Cc1c(C)c2c(c(C)c1O)CCC(C)(C(=O)O)O2 (stereo not drawn) [Trolox] | 47.5 |  |  |
| Oc1cc2c(cc1Nc1ccc(Cl)c(Cl)c1)C[C@@H]1NCC[C@]23CCCC[C@H]13 [Example 65, (+)-2-(3,4-Dichlorophenylamino)-3-hydroxymorphinan TFA salt] |  | 314 | 1.6 |
| CCCN(C)c1cc2c(cc1O)[C@]13CCCC[C@@H]1[C@H](C2)NCC3 [Example 102, (+)-3-Hydroxy-2-(methylpropylamino)morphinan TFA salt] |  | 548 | 29.6 |
| CCc1ccc(Nc2cc3c(cc2O)[C@]24CCCC[C@@H]2[C@H](C3)NCC4)cc1 [Example 53, (+)-2-(4-Ethylphenylamino)-3-hydroxymorphinan TFA salt] |  | 40.2 | 1.6 |
| O=S(=O)(Nc1ccccc1Nc1cc2c(cc1O)[C@]13CCCC[C@@H]1[C@H](C2)NCC3)c1ccccc1 [Example 113, (+)-2-(2-(Benzenesulfonamido)phenylamino)-3-hydroxymorphinan TFA salt] |  | 27.2 | 3.01 |
| CC(=O)Nc1ccc(Nc2cc3c(cc2O)[C@]24CCCC[C@@H]2[C@H](C3)NCC4)cc1 [Example 116, TFA salt] |  | 2840 | 36.5 |
| Oc1ccccc1Nc1cc2c(cc1O)[C@]13CCCC[C@@H]1[C@H](C2)NCC3 [Example 43, (+)-3-Hydroxy-2-(2-hydroxyphenylamino)morphinan TFA salt] |  | 2.71 | 10.4 |
| Oc1cc2c(cc1Nc1cccc(Cl)c1O)C[C@@H]1NCC[C@]23CCCC[C@H]13 [Example 55, (+)-2-(3-Chloro-2-hydroxyphenylamino)-3-hydroxymorphinan TFA salt] |  | 101 | 9.2 |
| Oc1cc2c(cc1Nc1ccccc1Cc1ccccc1)C[C@@H]1NCC[C@]23CCCC[C@H]13 [Example 62, (+)-2-(2-Benzylphenylamino)-3-hydroxymorphinan TFA salt] |  | 52.4 | 1.6 |
| CC(C)c1ccccc1Nc1cc2c(cc1O)[C@]13CCCC[C@@H]1[C@H](C2)NCC3 [Example 50, (+)-3-Hydroxy-2-(2-isopropylphenylamino)morphinan TFA salt] |  | 43 | 1 |
| COC(=O)c1ccccc1Nc1cc2c(cc1O)[C@]13CCCC[C@@H]1[C@H](C2)NCC3 [Example 108, (+)-3-Hydroxy-2-(2-(methoxycarbonyl)phenylamino)morphinan TFA salt] |  | 7960 | > 100 |
| CCOCCNc1cc2c(cc1O)[C@]13CCCC[C@@H]1[C@H](C2)NCC3 [Example 99, (+)-2-(2-Ethoxyethylamino)-3-hydroxymorphinan TFA salt] |  | 10400 | > 100 |
| CCCCNC(=O)Nc1ccccc1Nc1cc2c(cc1O)[C@]13CCCC[C@@H]1[C@H](C2)NCC3 [Example 121, (+)-2-(2-(Butylureido)phenylamino)-3-hydroxymorphinan TFA salt] |  | > 100000 | 23.1 |
| Nc1ccccc1Nc1cc2c(cc1O)[C@]13CCCC[C@@H]1[C@H](C2)NCC3 [Example 106, (+)-2-(2-Aminophenylamino)-3-hydroxymorphinan TFA salt] |  | 36.6 | 21.8 |
| Oc1cc2c(cc1NC1CCCC1)C[C@@H]1NCC[C@]23CCCC[C@H]13 [Example 92, (+)-2-Cyclopentylamino-3-hydroxymorphinan TFA salt] |  | 92.7 | 378 |
| Oc1cc2c(cc1Nc1ccc(C(F)(F)F)cc1)C[C@@H]1NCC[C@]23CCCC[C@H]13 [Example 35, (+)-3-Hydroxy-2-(4-(trifluoromethyl)phenylamino)morphinan TFA salt] |  | 2590 | 52.8 |

| Structure (SMILES) | EC50 [1] [µM] | EC50 [2] [nM] | CC50 at 24 h [3] [µM] |
| --- | --- | --- | --- |
| Oc1cc2c(cc1-c1ccc(C(F)(F)F)cc1)C[C@@H]1NCC[C@]23CCCC[C@H]13 [Example 79, (+)-3-Hydroxy-2-(4-trifluorophenyl)morphinan TFA salt] |  | 6100 | 11 |
| Oc1cc2c(cc1Nc1cccc(F)c1)C[C@@H]1NCC[C@]23CCCC[C@H]13 [Example 39, (+)-2-(3-Fluorophenylamino)-3-hydroxymorphinan TFA salt] |  | 145 | 13.8 |
| CCNC(=O)Nc1ccccc1Nc1cc2c(cc1O)[C@]13CCCC[C@@H]1[C@H](C2)NCC3 [Example 120, (+)-2-(2-(Ethylureido)phenylamino)-3-hydroxymorphinan TFA salt] |  | 8850 | 36.5 |
| Oc1cc2c(cc1Nc1ccccc1Cl)C[C@@H]1NCC[C@]23CCCC[C@H]13 [Example 48, (+)-2-(2-Chlorophenylamino)-3-hydroxymorphinan TFA salt] |  | 99.1 | 2.7 |
| Oc1cc2c(cc1Nc1ccc3[nH]ncc3c1)C[C@@H]1NCC[C@]23CCCC[C@H]13 [Example 69, (+)-3-Hydroxy-2-((1H-indazol-5-yl)amino)morphinan TFA salt] |  | 1020 | 48 |
| Oc1cc2c(cc1NC1CCCCCC1)C[C@@H]1NCC[C@]23CCCC[C@H]13 [Example 94, (+)-2-Cycloheptylamino-3-hydroxymorphinan TFA salt] |  | 102 | 7.55 |
| Oc1cc2c(cc1Nc1ccc(OC(F)(F)F)cc1)C[C@@H]1NCC[C@]23CCCC[C@H]13 [Example 58, (+)-3-Hydroxy-2-(4-(trifluoromethoxy)phenylamino)morphinan TFA salt] |  | 131 | 1.4 |
| CCCC(CCC)Nc1cc2c(cc1O)[C@]13CCCC[C@@H]1[C@H](C2)NCC3 [Example 89, (+)-2-(Heptan-4-ylamino)-3-hydroxymorphinan TFA salt] |  | 74 | 1.94 |
| CCCCS(=O)(=O)Nc1ccccc1Nc1cc2c(cc1O)[C@]13CCCC[C@@H]1[C@H](C2)NCC3 [Example 112, (+)-2-(2-(Butanesulfonamido)phenylamino)-3-hydroxymorphinan TFA salt] |  | 55.6 | 20 |
| CC1(c2cc3c(cc2O)[C@]24CCCC[C@@H]2[C@H](C3)NCC4)CCCCC1 [Example 105, (+)-3-Hydroxy-2-(1-methylcyclohexyl)morphinan TFA salt] |  | 594 | 2.24 |
| Cc1cc(C)cc(Nc2cc3c(cc2O)[C@]24CCCC[C@@H]2[C@H](C3)NCC4)c1 [Example 27, (+)-2-(3,5-Dimethylphenylamino)-3-hydroxymorphinan TFA salt] |  | 27.3 | 1.52 |
| Cc1ccc(Nc2cc3c(cc2O)[C@]24CCCC[C@@H]2[C@H](C3)NCC4)cc1 [Example 28, (+)-3-Hydroxy-2-(4-methylphenylamino)morphinan TFA salt] |  | 32.5 | 1.84 |
| COc1ccccc1Nc1cc2c(cc1O)[C@]13CCCC[C@@H]1[C@H](C2)NCC3 [Example 42, (+)-3-Hydroxy-2-(2-methoxyphenylamino)morphinan TFA salt] |  | 95.9 | 11.4 |
| CCN(C)c1cc2c(cc1O)[C@]13CCCC[C@@H]1[C@H](C2)NCC3 [Example 103, (+)-2-(Ethylmethylamino)-3-hydroxymorphinan TFA salt] |  | 1590 | > 100 |
| Cc1c2c(cc(O)c1Nc1ccccc1NS(C)(=O)=O)[C@]13CCCC[C@@H]1[C@H](C2)NCC3 [Example 134, (+)-3-Hydroxy-2-(2-(methanesulfonamido)phenylamino)-1-methylmorphinan TFA salt] |  | 153 | 53.2 |
| CN(c1ccc(F)cc1)c1cc2c(cc1O)[C@]13CCCC[C@@H]1[C@H](C2)NCC3 [Example 124, (+)-2-(4-Fluorophenyl(methyl)amino)-3-hydroxymorphinan TFA salt] |  | 371 | 6.4 |
